Test results: patent US4552868A, “14-Amino steroid derivatives, a process for the preparation thereof and method of use thereof” (Etablissements Nativelle S.A., priority 1982, dated 1985)
pIC50: −log10 of the molar value.

Legend:
cardiac contractility = assay: Toxicity versus increase in cardiac contractility in the anesthetized dog; format: in vivo
Description: Similarly, the toxicity of the derivatives of the invention is reversible, that is, stopping their administration is sufficient to make problems observed using an electrocardiogram disappear.

[1] = system: isolated guinea pig auricle; assay: Positive inotropic activity: increase in force of contraction on the isolated guinea pig auricle; settings: Cavia porcellus, read-out: Range of contractions in relation to the control values; for activation at 2 µM: 2 × 10^-6 Moles/l; for activation at 0.2 µM: 2 × 10^-7 Moles/l; for activation at 6 µM: 6 × 10^-6 Moles/l; for activation at 10 µM: 10^-5 Moles/l; for activation at 1 µM: 10^-6 Moles/l
Description: Inotropic activity has been verified on the isolated guinea pig auricle under normal experimental conditions, by recording the range of contractions for various doses administered in relation to control values.
Range of contractions in relation to the control values

membraneous ATPase = assay: Inhibition of membraneous ATPase; format: biochemical; settings: read-out: ED50 (dose causing 50% inhibition of membraneous ATPase)
Description: The results obtained using the derivatives of the invention described in Examples 2, 6 and 7 and ouabain and digoxin are shown in Table 2 below.
In Table 2, the ED50 value is the dose causing 50% inhibition of membraneous ATPase.

SMILES | increase in cardiac contractility at which toxic signs appear (cardiac contractility; same experimental conditions) | activation at 2 µM [1] | activation at 0.2 µM [1] | activation at 6 µM [1] | activation at 10 µM [1] | activation at 1 µM [1] | pIC50 (membraneous ATPase) | increase in cardiac contractility without any signs of toxicity (cardiac contractility) | signs of toxicity (cardiac contractility; at 150% increase in cardiac contractility)
C[C@H]1O[C@@H](O[C@H]2[C@@H](O)C[C@H](O[C@H]3[C@@H](O)C[C@H](O[C@H]4CC[C@@]5(C)[C@H](CC[C@@H]6[C@@H]5C[C@@H](O)[C@]5(C)[C@@H](C7=CC(=O)OC7)CC[C@]65O)C4)O[C@@H]3C)O[C@@H]2C)C[C@H](O)[C@@H]1O [digoxin, reference compound] | approximately 50% | 114% | 38% | 128% | 128% | 100% | 8.28 | – | –
C[C@H](O)[C@H]1CC[C@]2(N)[C@@H]3CC[C@@H]4C[C@@H](O[C@@H]5O[C@@H](C)[C@H](O)[C@@H](O)[C@H]5O)CC[C@]4(C)[C@H]3CC[C@]12C [Example 6, 3-O-(α-L-rhamnopyranosyl) 14β-amino 5β-pregnane 3β,20α-diol] | – | 63% | – | 143% | 148% | 43% | 9.74 | 150% | without any signs of toxicity
C[C@@H]1O[C@@H](O[C@H]2CC[C@@]3(C)[C@H](CC[C@@H]4[C@@H]3CC[C@]3(C)[C@@H](CO)CC[C@]43N)C2)[C@H](O)[C@H](O)[C@H]1O [Example 2, 3-O-(α-L-rhamnopyranosyl) 14β-amino 21-nor 5β-pregnane 3β,20-diol] | – | – | – | – | – | – | 9.89 | – | –
C[C@@H]1O[C@@H](O[C@H]2C[C@@H](O)[C@]3(CO)[C@H]4[C@H](O)C[C@]5(C)[C@@H](C6=CC(=O)OC6)CC[C@]5(O)[C@@H]4CC[C@]3(O)C2)[C@H](O)[C@H](O)[C@H]1O [ouabain, reference compound] | – | – | – | – | – | – | 8.44 | – | –
C[C@@H]1O[C@@H](O[C@H]2CC[C@@]3(C)[C@H](CC[C@@H]4[C@@H]3CC[C@]3(C)[C@@H]([C@@H](C)O)CC[C@]43N)C2)[C@H](O)[C@H](O)[C@H]1O [Example 7, 3-O-(α-L-rhamnopyranosyl) 14β-amino 5β-pregnane 3β,20β-diol] | – | 178% | 50% | 233% | 206% | 97% | 10.15 | – | –
